Test results taken from PubChem BioAssay (NCI).
Values joined by “and” are separate entries in the source; they are usually repeats but may differ in a detail not shown here. Equal entries are not always repeated.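 A five-concentration, 48-hour dose response in 96-well plates underlies each endpoint, interpolated linearly between surrounding concentrations. Abbreviation: GI50, concentration required for 50% inhibition of growth. At the TGI there is no net growth.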

Columns and labels:
Experiment in all cases: inhibition of tumour cell growth, NCI panel, 48 h
[1] = system: A498 renal
[2] = system: CAKI-1 renal
[3] = system: DU-145 prostate
[4] = system: HCT-116 colon
[5] = system: HOP-92 NSCLC
[6] = system: IGROV1 ovarian
[7] = system: SF-539 CNS
[8] = system: SK-MEL-2 melanoma
[9] = system: T-47D breast
[10] = system: U251 CNS

| SMILES | TGI [1] | TGI [2] | TGI [3] | TGI [4] | TGI [5] | TGI [6] | TGI [7] | TGI [8] | TGI [9] | TGI [10] | GI50 [1] | GI50 [2] | GI50 [3] | GI50 [4] | GI50 [5] | GI50 [6] | GI50 [7] | GI50 [8] | GI50 [9] | GI50 [10] |
| --- | --- | --- | --- | --- | --- | --- | --- | --- | --- | --- | --- | --- | --- | --- | --- | --- | --- | --- | --- | --- |
| O=P(O)(CCP(=O)(O)c1ccccc1)c1ccccc1 | > 100 µM | > 100 µM | > 100 µM | > 100 µM | > 100 µM | > 100 µM | > 100 µM | > 100 µM | > 100 µM | > 100 µM | – | – | – | – | – | – | – | – | – | – |
| COc1cc(C2CC(c3ccc(C)cc3)=NN2C=O)ccc1Oc1ccnc2cc(Cl)ccc12 (stereo not given) | 23.1 µM | > 50 µM | > 50 µM | > 50 µM | > 50 µM | > 50 µM | 27 µM | 18.3 µM | 23.5 µM | 21.4 µM | 5730 nM | > 50000 nM | > 50000 nM | 2500 nM | 9.1 µM | 24.8 µM | 3850 nM | 7390 nM | 2900 nM | 6.5 µM |
| O=C(CN1CCN(c2ncccn2)CC1)Nc1ccc(Cl)cc1C(=O)c1ccccc1Cl | > 100 µM | > 100 µM | > 100 µM | > 100 µM | 75.1 µM | > 100 µM | > 100 µM | > 100 µM | > 100 µM | > 100 µM | > 100000 nM | > 100000 nM | > 100000 nM | 78700 nM | 5.73 µM | 93.2 µM | > 100000 nM | > 100000 nM | 30800 nM | > 100 µM |
| COc1ccc2nc(N/N=C(\C)c3ccccn3)cc(C)c2c1 | 7.02 µM | 1.17 µM | 1.17 µM | 1.13 µM | 2.55 µM | 1.05 µM | 1.23 µM | 0.973 µM | 1.61 µM | 1.28 µM | 812 nM | 271 nM | 215 nM | 363 nM | 0.169 µM | 0.219 µM | 269 nM | 174 nM | 76.6 nM | 0.261 µM |
| O=C1NCc2ccc3c(-c4cccc(Cl)c4)c[nH]c3c21 | 0.671 µM | > 50 µM | > 50 µM | 9.07 µM | > 50 µM | > 50 µM | 3.29 µM | > 50 µM | > 50 µM | > 50 µM | 58 nM | 205 nM | 279 nM | 217 nM | 3.22 µM | 0.316 µM | 166 nM | 317 nM | 277 nM | 0.247 µM |
| N#Cc1c(-c2nc3ccccc3s2)c(=O)oc2cc(O)ccc12 | > 100 µM | 85.6 µM | > 100 µM | > 100 µM | 46.3 µM | > 100 µM | > 100 µM | > 100 µM | 78.2 µM | > 100 µM | – | – | – | – | – | – | – | – | – | – |
| CC(=O)n1c(COS(C)(=O)=O)nc2ccccc21 | > 100 µM | > 100 µM | > 100 µM | > 100 µM | > 100 µM | > 100 µM | > 100 µM | > 100 µM | > 100 µM | > 100 µM | – | – | – | – | – | – | – | – | – | – |
| CN1CC[C@@H](c2c(O)cc(O)c3c(=O)cc(-c4ccccc4Cl)oc23)[C@@H](O)C1 | 0.181 µM and 1.13 µM | > 39.6 µM | – | 27.5 µM | 0.517 µM and 1.87 µM | > 100 µM | 0.141 µM and 0.057 µM and 0.148 µM | 0.215 µM and 0.209 µM and 0.101 µM | – | 31 µM | 60.4 nM | – | 77.4 nM and 90.2 nM | 33.8 nM and 25.8 nM | 0.104 µM | – | 68.8 nM and 19.7 nM | 124 nM and 71 nM | 82.4 nM and 66.9 nM and 34.2 nM | – |
| COc1ccc(-c2nn3ncccc3c2-c2ccnc(Nc3ccc(Cl)c(C(F)(F)F)c3)n2)cc1 | > 25 µM | > 25 µM | > 25 µM | > 25 µM | 19.8 µM | > 25 µM | > 25 µM | > 25 µM | > 25 µM | > 25 µM | 6520 nM | 12400 nM | 14000 nM | 8010 nM | 4.54 µM | 9.48 µM | > 18900 nM | 11600 nM | 7210 nM | 12.4 µM |
| CNC(=O)c1cc(OC2CCC(NC(=O)Nc3ccc(Cl)c(C(F)(F)F)c3)CC2)ccn1 (stereo not given) | 22.1 µM | 31.9 µM | 32.5 µM | 16.6 µM | 27.1 µM | 39.6 µM | 29.6 µM | 38.3 µM | 39.4 µM | 23.4 µM | 8140 nM | 6750 nM | 12800 nM | 4350 nM | 6.8 µM | 13.4 µM | 12000 nM | 15800 nM | 5310 nM | 6.81 µM |
| CCN(CC)CCOc1nc2ccc(OC)cc2c2c1-c1ccc(OC)cc1C2=O | 2.17 µM | 2.88 µM | 1.88 µM | 1.64 µM | 5.36 µM | 1.89 µM | 2.95 µM | 4.05 µM | 26.3 µM | 1.72 µM | 802 nM | 1150 nM | 626 nM | 368 nM | 0.786 µM | 0.417 µM | 1240 nM | 2240 nM | 11000 nM | 0.454 µM |
| COc1cccc(C2CC(C)(N3CCCC3)Oc3cc4c(cc32)OCO4)c1O (stereo not given) | > 100 µM | > 100 µM | > 96.3 µM | > 63.6 µM | > 100 µM | 99.2 µM | 46.1 µM | 55.8 µM | > 100 µM | 77.4 µM | – | – | – | – | – | – | – | – | – | – |
| CS(=O)(=O)CCNCc1nc(-c2ccc3ncnc(Nc4ccc(F)c(Cl)c4)c3c2)cs1 | 20.5 µM | > 25 µM | > 25 µM | > 25 µM | > 25 µM | > 25 µM | > 25 µM | > 25 µM | > 25 µM | > 25 µM | 3320 nM | 1470 nM | 5490 nM | > 23900 nM | 9.82 µM | 7.39 µM | > 25000 nM | > 17600 nM | 8570 nM | > 25 µM |
| COc1ccc2c(c1)[nH]c(=O)c1c3cc(C)c(C)cc3cn21 | < 0.0295 µM | 0.0102 µM | 0.188 µM | 0.516 µM | 2.32 µM | 0.215 µM | 0.0578 µM | 6.19 µM | 2.9 µM | 1.2 µM | < 10 nM | < 10 nM | < 10 nM | < 10 nM | 0.485 µM | < 0.0188 µM | 18.6 nM | < 20.8 nM | 1170 nM | < 0.01 µM |
